Measured values from patent US7671251B2, “In vivo assay for neurite outgrowth in zebrafish and its application in drug screening” (Academia Sinica, priority 2005, dated 2010).

What was measured:
[1] = system: NGF-induced neurite outgrowth; settings: Feng et al., 2004; cited from earlier work
PC12D cells = PC12D cells (Li et al., 2004); cited from earlier work
cultured neurons = cultured neurons / neuronal cells (Raulo et al., 1994; Kinnunen et al., 1996; Rauvala et al., 1997); cited from earlier work
[2] = system: fluorescent blood vessels; settings: transgenic fluorescent embryos (Parng et al., 2002); cited from earlier work
[3] = system: HBNF-induced neurite outgrowth; assay: modified in vivo neurite outgrowth assay in zebrafish embryos, inhibition by injected heparin; settings: heparin injected into zebrafish embryo at two- or four-cell stage; data not shown
Excerpt: As mentioned above, we modified the in vivo neurite outgrowth assay in zebrafish embryos to investigate the inhibitory effect of heparin or heparan sulfate on HBNF-induced neurite outgrowth by further injection of different dosage of heparin or heparan sulfate into zebrafish embryo at two- or four-cell stage. […] Therefore, the modified assay system also can be used to compare the inhibitory or enhancing effect of HBNF/PTN-induced neurite outgrowth in vivo by heparin and its modified forms, N-syndecan-derived saccharides, and other glycosaminoglycans.

[4] = system: GFP-labeled neurons in zebrafish embryos; assay: in vivo neurite outgrowth promotion assay, expression construct coinjected with pHuC-GFP into zebrafish embryos; design: species or system Zebrafish (Danio rerio); settings: expression construct coinjected with pHuC-GFP at one-cell stage; observed at 48 or 72 hpf
Procedure: The expression construct pcDNA-HBNF-HA and pHuC-GFP (panels 2, 5-7) were coinjected into zebrafish embryos at 1-cell stage. Similar injection of pHuC-GFP alone (panel 1) was used as control. Zebrafish embryos at 72 h postfertilization with GFP fluorescence were selected for image analysis. Embryos are shown as lateral view with anterior to the left. Experiments were repeated at least three times and at least 100 fertilized eggs were used for injection of expression constructs at each time. Four representative patterns with significant enhancement of neurite outgrowth (panels 2, 5-7) were shown. Images of bright field and fluorescence were merged and shown in panels 1, 2, and 5-7, while fluorescence images only in panels 3, 4, 8-10. Higher magnification of two regions marked with yellow boxes in panel 2 was shown in panel 3 and 4, respectively. N, notochord; DF, dorsal fin; VF, ventral fin. Scale bars represent 100 μm.
The expression construct pcDNA-NGF-HA and pHuC-GFP were coinjected into zebrafish embryos at 1-cell stage. Similar injection of pHuC-GFP alone was used as control. Zebrafish embryos at 72 hpf with GFP fluorescence were selected for image analysis. Embryos are shown as lateral view with anterior to the left. Images of bright field and fluorescence were merged and shown in panel 1, while fluorescence images only in panel 2. Higher magnification of the head region and tail region with significant neurite outgrowth in panel 2 was shown in panels 3 and 4, respectively.
The expression construct pGFAP-GDNF-HA and pHuC-GFP were coinjected into zebrafish embryos at 1-cell stage. Similar injection of pHuC-GFP alone was used as control. Zebrafish embryos at 48 hpf with GFP fluorescence were selected for image analysis. […] Images of bright field and fluorescence were merged and shown in panel 1, while fluorescence images only in panel 2. […]
Zebrafish (Danio rerio) were maintained at 28° C. on a 14 h-light/10 h-dark cycle. Embryos were incubated at 28° C. and different developmental stages were determined according to the description in Zebrafish Book (Westerfield, 1995). […]

[5] = system: neuro2A neuroblastoma cells; settings: Hiwasa et al., 1997; cited from earlier work
[6] = infused directly in putamen (Gill et al., 2003); cited from earlier work
PC12 cells = assay: neurite outgrowth in PC12 cells transfected with pcDNA-HBNF-HA; assay type: cell-based, rat; settings: transfected HBNF cDNA under CMV promoter, without NGF stimulation, 72 h posttransfection

COC(=O)[C@]1(O)C[C@H]2O[C@]1(C)n1c3ccc(O)c(N)c3c3c4c(c5c6ccccc6n2c5c31)C(=O)NC4=O [Indocarbazostatin D]
inhibition of NGF-induced neurite outgrowth [1]: inhibitors of NGF-induced neurite outgrowth

CC(=O)O[C@@H]1[C@@H](O)[C@H](C)O[C@@H](OC[C@H]2O[C@@H](Oc3cc(O)c4c(=O)cc(-c5ccc(O)cc5)oc4c3)[C@H](O)[C@@H](O)[C@@H]2O)[C@@H]1O [Compound 2, apigenin 7-O-alpha-L-3-O-acetylrhamnopyranosyl-(1→6)-beta-D-glucopyranoside]
enhancing activity of nerve growth factor-mediated neurite outgrowth (PC12D cells): enhancing activity

low molecular weight heparin
inhibition of HBNF/PTN-induced neurite outgrowth (cultured neurons): more potent inhibition

Cc1[nH]c(/C=C2\C(=O)Nc3ccccc32)c(C)c1CCC(=O)O [SU-6668]
inhibition of angiogenesis [2]: inhibit angiogenesis

COC(=O)[C@]1(O)C[C@H]2O[C@]1(C)n1c3ccc(O)cc3c3c4c(c5c6ccccc6n2c5c31)C(=O)NC4=O [Indocarbazostatin C, Indocarbazostatins C]
inhibition of NGF-induced neurite outgrowth [1]: inhibitors of NGF-induced neurite outgrowth

CC(=O)O[C@@H]1[C@@H](O)[C@H](C)O[C@@H](OC[C@H]2O[C@@H](Oc3cc(O)c4c(=O)cc(-c5ccc(O)cc5)oc4c3)[C@H](O)[C@@H](O)[C@@H]2O)[C@@H]1OC(C)=O [Compound 3, apigenin 7-O-alpha-L-2,3-di-O-acetylrhamnopyranosyl-(1→6)-beta-D-glucopyranoside]
enhancing activity of nerve growth factor-mediated neurite outgrowth (PC12D cells): enhancing activity

heparin
inhibitory effect on HBNF-induced neurite outgrowth [3]: inhibit HBNF-induced neurite outgrowth

B1: zebrafish GDNF: zebrafish glial-derived neurotrophic factor expressed in glia cells from pGFAP-GDNF-HA (protein, UniProt Q98TU0 90-235, looked up)
Glial cell line-derived …: SSDVEPQMKRDRVRQKAAANTEKSGGRGRGERKRSRGRARSRDDRVKGQGRGCLLKEIHLNVTDLDLGYRTKEELIFRYCSGPCHDAETNYDKILNNLTHNKKLDKDTPSRTCCRPIAFDDDISFLDDSLEYHTLKKHSAKKCACV
modifications: HA tag
notes: zebrafish glial-derived neurotrophic factor expressed in glia cells from pGFAP-GDNF-HA
enhancement of neurite outgrowth in zebrafish embryos [4]: induce extensive neurite outgrowth

B2: zebrafish NGF: zebrafish nerve growth factor expressed from pCMV-NGF-HA (protein, UniProt Q6YBR5 77-194, looked up)
Nerve growth factor: KAGPPQHRGVYSVCESISHWEGNKTKATDITGNEVTVLPDVIINNSKKKQYFFETTCSSGRTGGSGCLGIDARHWNSYCTNSHTFVRALTSFKNLVAWRLIRINVACVCVLSRKSWRA
modifications: HA tag
notes: zebrafish nerve growth factor expressed from pCMV-NGF-HA
enhancement of neurite outgrowth in zebrafish embryos [4]: induce extensive neurite outgrowth

B3: recombinant GDNF: recombinant glial-derived neurotrophic factor (Hiwasa et al., 1997) (protein, UniProt P39905 78-211, looked up)
Glial cell line-derived …: SPDKQMAVLPRRERNRQAAAANPENSRGKGRRGQRGKNRGCVLTAIHLNVTDLGLGYETKEELIFRYCSGSCDAAETTYDKILKNLSRNRRLVSDKVGQACCRPIAFDDDLSFLDDNLVYHILRKHSAKRCGCI
neurite outgrowth of neuro2A neuroblastoma cells [5]: induce neurite outgrowth

B4: GDNF: glial-derived neurotrophic factor infused directly in putamen in a clinical trial (protein, UniProt P39905 78-211, looked up)
Glial cell line-derived …: SPDKQMAVLPRRERNRQAAAANPENSRGKGRRGQRGKNRGCVLTAIHLNVTDLGLGYETKEELIFRYCSGSCDAAETTYDKILKNLSRNRRLVSDKVGQACCRPIAFDDDLSFLDDNLVYHILRKHSAKRCGCI
side-effects [6]: does not have significant side-effects
treatment effect in Parkinson disease [6]: effective treatment for Parkinson disease

B5: zebrafish HBNF: zebrafish heparin-binding neurotrophic factor (SEQ ID NO: 1) expressed from pcDNA-HBNF-HA (protein)
chain: MQQQWVCVALLALLTVTATLADGGKTEKQGKKERKSDCGEWQWSVCVANEGDCGLGIREGTRSGNDCKQTIKTQRCKIPCNWKKQFGGECKYDFQAWGECDSTTGMKTRTGVLKRALMDANCPNTVSATKPCGKPKTKMQDSQKPKRDGKKKERNPTD
modifications: HA tag; Danio rerio
neurite outgrowth in PC12 cells (PC12 cells): induce significant neurite outgrowth
enhancement of neurite outgrowth in zebrafish embryos [4]: enhance extensive neurite outgrowth
